Measured values published in patent US9642369B2 (dated 2017).

## CN(C)CCCNS(=O)(=O)c1cccc2c(N(C)C)cccc12 (hydrate or solvate)
  melting point: 122 to 124 °C

## CCOP(=O)(CCC[N+](C)(C)CCCNS(=O)(=O)c1cccc2c(N(C)C)cccc12)OCC.[Br-]
  melting point: 34 to 36 °C
